The source of these data is patent US20230190707A1, “COMPOSITIONS AND METHODS FOR ENHANCING CANCER IMMUNOTHERAPY” (FRED HUTCHINSON CANCER CENTER, priority 2020, published 2023).

Where two headings read alike, the source gives them in different places.

One data set has as its system donor T cells. In words: CFSE adoptive T cell transfer with in vivo splicing modulator treatment. On the procedure: Splenic T cells were obtained from B6 or CD45.1 donors by CD5 positive selection (Miltenyi Biotec, Cat. 130-049-301), labeled with CellTrace CFSE (ThermoFisher Cat. C34570) at 10 μM, and adoptively transferred by tail vein injection into lethally irradiated B6, Balb/c, or LP/J recipients, with […] labeled donor T cells transferred per recipient. All recipients were irradiated on day −1 prior to adoptive T cell transfer with 7 Gy as a single fraction and continuously received splicing inhibitor drugs or vehicle control at the indicated doses, from day −1 until day of sacrifice, with the initial dose of drug at least 4 hours after lethal irradiation. Indisulam and MS-023 were solubilized for in vivo administration and animals were treated as above. Pladienolide B (Tocris, Cat. 6070) and GEX1A (Cayman Chemicals, Cat. 25136) were both dissolved in vehicle (10% ethanol and 4% Tween-80 in sterile PBS) and administered i.p., with pladienolide B dosed at 10 mg/kg every other day, and GEX1A dosed at 1.25 mg/kg every four days. For in vivo use, EPZ015666 was dissolved in DMSO and solubilized in 0.5% methylcellulose in water to 20 mg/mL; animals were treated daily with 200 mg/kg by oral gavage.

Data set [1] concerns bone marrow hematopoietic stem and progenitor cells. In words: M3434 methylcellulose colony assay. It counts as cell-based, mouse. On the procedure: 25,000 red blood cell-lysed bone marrow mononuclear cells from C57BL/6 mice were plated in duplicates or triplicates in each well of a non-tissue-culture treated 6 well plate with M3434 methylcellulose media in the presence of splicing drugs at the indicated concentrations as per manufacturer's instructions (StemCell Technologies, Cat. 03434) and incubated for seven days prior to quantification of colonies by manual microscopy.

Another data set relates to CD5^+ splenic T cells. Nature of the data set: Anti-CD3/CD28 T cell activation and proliferation (CFSE). Format: cell-based, mouse. Particulars: three days of continuous drug exposure. On the procedure:
Cell lines were grown with half-log10 concentrations of the indicated drug in 4 to 8 technical replicates under standard conditions until the control condition (DMSO or vehicle) was confluent by microscopy. For tumor cell lines, viable cells were quantified via the CellTiter-Glo® assay (Promega Cat. G7573) as per manufacturer instructions. For the ex vivo proliferation of T cells, viable cells were instead quantified via flow cytometry using counting beads. The percentage or number of viable cells with drug treatment was calculated relative to DMSO control (as 100%). […] For absolute cell number, Annexin V+, CD25+, and PD1+ flow cytometry data presented in Figure S4, dose-response models and IC50 values were computed using the R language's dre package (Ritz, C., et al. (2015). Dose-Response Analysis Using R. PLoS One 10, e0146021).
(§1) Plates were coated with 10 μg/mL anti-CD3 (clone 145-2C11, Biolegend Cat. 100302) and 2 μg/mL anti-CD28 (clone 37.51, Biolegend Cat. 102102) in PBS overnight at 4° C. and washed twice with cold PBS prior to use. CFSE-labeled CD5-selected splenic T cells from naïve C57BL/6J mice were obtained identically as for adoptive cell transfer, and 5×10^4 cells incubated with coated plates in the presence of splicing inhibitor drugs at the indicated concentrations, followed by analysis by standard flow cytometry on day 3. Of note, for RNA-seq analyses, T cells were not labeled with CFSE, and underwent activation for 4 days (96 hours) in the presence of various splicing modulator drugs to harmonize experimental conditions with RNA-seq analyses of tumors treated with splicing inhibitors. For the RNA-seq experiments only, T cells in all conditions were also incubated with IL-2 at 50 U/mL to maximize viability and yield.

For data set [2], the system named is T cells stimulated with anti-CD3 and CD28 antibodies. Nature of the data set: Gene expression program of activated T cells (RNA-seq). It counts as cell-based, mouse. Particulars: ex vivo anti-CD3 and CD28 stimulation in presence of drug. As to the method: as §1
Bulk lung and colon were homogenized using a Qiagen TissueRuptor. For all tissues and cell types, RNA was extracted using an RNeasy kit (Qiagen, Frederick, Md.) and quantified using a NanoDrop 8000 (ThermoFisher Scientific). A minimum of 500 ng of high-quality RNA (as determined by Agilent Bioanalyzer) per sample or replicate was used for library preparation. Poly(A)-selected, strand-specific (dUTP method) Illumina libraries were prepared with a modified TruSeq protocol and sequenced on the Illumina HiSeq 2000 (˜100M 2×101 bp paired-end reads per sample or replicate).

As to `O=C(NC[C@H](O)CN1CCc2ccccc2C1)c1cc(NC2COC2)ncn1` [EPZ015666], the “in vivo T cell proliferation or activation in response to alloantigen” value in the data set on donor T cells (mouse, in vivo) was “minimal impairment”. Also, the “hematopoiesis (colony formation)” value in data set [1] was “suppressed hematopoiesis”.
For `CO[C@H]([C@@H](C)[C@H]1O[C@]1(C)C[C@H](C)/C=C/C=C(\C)[C@H]1O[C@@H](CC(=O)O)CC[C@@H]1C)[C@@H](C)O` [GEX1A, herboxidiene], in the data set on CD5^+ splenic T cells, the “IC50 values, T cell proliferation following stimulation (in words)” value is on record as “low nanomolar range”.
pladienolide B: the “in vivo T cell proliferation or activation in response to alloantigen” value with donor T cells (CD45.1 T cells into irradiated Balb/c or LP/J recipients, daily treatment) is “markedly suppressed T cell proliferation”. Further, in data set [2], the “genes normally upregulated upon T cell activation” value is reported as “markedly attenuated”. Further, in data set [1] (micromolar doses, pladienolide B at nanomolar concentrations), the “hematopoiesis (colony formation)” value is listed as “even more profoundly suppressed hematopoiesis”. The “IC50 values, T cell proliferation following stimulation (in words)” value in the data set on CD5^+ splenic T cells is given as “low nanomolar range”.
